Non-standard residues stand in square brackets, D forms with d. Residues, ends and D or L forms follow the SMILES beside them. Cit = NC(=O)NCCC[C@H](N)C(=O)O
target: T1, DR0401 protein (Homo sapiens, UniProt P01903+P01911, A100K/A169T/F76Y/I96L/K127E/L162R/M171V/N62H/P40V/Q125Y/R42H/S133A/S149N/S66Y/V115G/V209L/W38E); assay: DR0401 peptide binding competition assay; settings: Supplementary Table 2; competition with biotin-HA306-318 0.02 μM; read-out: IC50 (Binding of Predicted Glucokinase Peptides to DR04:01)
T1 construct: made in house; host or cells: insect cell cultures

| SMILES | IC50 [µM] |
| --- | --- |
| CC[C@H](C)[C@H](NC(=O)[C@H](CC(N)=O)NC(=O)[C@@H](N)Cc1ccc(O)cc1)C(=O)N[C@@H](CC(C)C)C(=O)N[C@@H](CO)C(=O)N[C@H](C(=O)N[C@@H](CC(C)C)C(=O)NCC(=O)N[C@@H](CC(C)C)C(=O)N[C@@H](CCCNC(N)=O)C(=O)N1CCC[C@H]1C(=O)N[C@@H](CO)C(=O)N[C@H](C(=O)N[C@H](C(=O)N[C@@H](CC(=O)O)C(=O)O)[C@@H](C)O)[C@@H](C)O)[C@@H](C)O [GK 349-363] (H-YNILSTLGL[Cit]PSTTD-OH; N-terminus and C-terminus assumed) | > 50 |
| CC[C@H](C)[C@H](NC(=O)[C@H](CC(=O)O)NC(=O)[C@H](CS)NC(=O)[C@H](CC(=O)O)NC(=O)[C@@H](NC(=O)[C@@H](NC(=O)[C@H](CO)NC(=O)[C@@H]1CCCN1C(=O)[C@H](CCCNC(N)=O)NC(=O)[C@H](CC(C)C)NC(=O)CNC(=O)[C@H](CC(C)C)NC(=O)[C@@H](NC(=O)[C@H](CO)NC(=O)[C@@H](N)CC(C)C)[C@@H](C)O)[C@@H](C)O)[C@@H](C)O)C(=O)O [GK 352-366] (H-LSTLGL[Cit]PSTTDCDI-OH; N-terminus and C-terminus assumed) | > 50 |
| CC[C@H](C)[C@H](NC(=O)[C@@H](N)CC(=O)O)C(=O)N[C@H](C(=O)N[C@@H](CCCNC(N)=O)C(=O)N[C@@H](CCCNC(=N)N)C(=O)N[C@@H](C)C(=O)N[C@@H](CS)C(=O)N[C@@H](CCC(=O)O)C(=O)N[C@@H](CO)C(=O)N[C@H](C(=O)N[C@@H](CO)C(=O)N[C@H](C(=O)N[C@@H](CCCNC(N)=O)C(=O)N[C@@H](C)C(=O)O)[C@@H](C)O)C(C)C)C(C)C [GK 365-378] (H-DIV[Cit]RACESVST[Cit]A-OH; N-terminus and C-terminus assumed) | > 50 |
| CC[C@H](C)[C@H](NC(=O)[C@@H](NC(=O)CNC(=O)[C@H](C)N)C(C)C)C(=O)N[C@@H](CC(N)=O)C(=O)N[C@@H](CCCNC(N)=O)C(=O)N[C@@H](CCSC)C(=O)N[C@@H](CCCNC(N)=O)C(=O)N[C@@H](CCC(=O)O)C(=O)N[C@@H](CO)C(=O)N[C@@H](CCCNC(N)=O)C(=O)N[C@@H](CO)C(=O)N[C@@H](CCC(=O)O)C(=O)N[C@@H](CC(=O)O)C(=O)N[C@H](C(=O)O)C(C)C [GK 387-401] (H-AGVIN[Cit]M[Cit]ES[Cit]SEDV-OH; N-terminus and C-terminus assumed) | > 50 |
| CC[C@H](C)[C@H](NC(=O)[C@H](CCCNC(N)=O)NC(=O)[C@H](CCSC)NC(=O)[C@@H](NC(=O)[C@H](CC(=O)O)NC(=O)[C@H](CCC(=O)O)NC(=O)[C@@H](N)CO)C(C)C)C(=O)N[C@H](C(=O)N[C@H](C(=O)NCC(=O)N[C@H](C(=O)N[C@@H](CC(=O)O)C(=O)NCC(=O)N[C@@H](CO)C(=O)N[C@H](C(=O)O)C(C)C)C(C)C)C(C)C)[C@@H](C)O [GK 398-412] (H-SEDVM[Cit]ITVGVDGSV-OH; N-terminus and C-terminus assumed) | > 50 |
| CC(C)C[C@H](NC(=O)[C@H](CCCCN)NC(=O)[C@H](Cc1ccc(O)cc1)NC(=O)[C@@H](NC(=O)[C@H](CO)NC(=O)CN)C(C)C)C(=O)N[C@@H](Cc1c[nH]cn1)C(=O)N1CCC[C@H]1C(=O)N[C@@H](CO)C(=O)N[C@@H](Cc1ccccc1)C(=O)N[C@@H](CCCCN)C(=O)N[C@@H](CCC(=O)O)C(=O)N[C@@H](CCCNC(N)=O)C(=O)N[C@@H](Cc1ccccc1)C(=O)N[C@@H](Cc1c[nH]cn1)C(=O)O [GK 410-424] (H-GSVYKLHPSFKE[Cit]FH-OH; N-terminus and C-terminus assumed) | > 50 |
| CC(C)C[C@H](NC(=O)[C@H](CCCNC(N)=O)NC(=O)[C@H](CCCNC(=N)N)NC(=O)[C@@H](NC(=O)[C@H](CO)NC(=O)[C@H](C)NC(=O)[C@H](Cc1c[nH]cn1)NC(=O)[C@H](Cc1ccccc1)NC(=O)[C@H](CCCNC(N)=O)NC(=O)[C@H](CCC(=O)O)NC(=O)[C@H](CCCCN)NC(=O)[C@H](Cc1ccccc1)NC(=O)[C@H](CO)NC(=O)[C@@H]1CCCN1C(=O)[C@@H](N)Cc1c[nH]cn1)C(C)C)C(=O)O [GK 416-439] (H-HPSFKE[Cit]FHASVR[Cit]L-OH; N-terminus and C-terminus assumed) | > 50 |
| CC[C@H](C)[C@H](NC(=O)[C@H](Cc1ccccc1)NC(=O)[C@@H](NC(=O)[C@@H](NC(=O)[C@@H](N)CCC(=O)O)[C@@H](C)CC)[C@@H](C)O)C(=O)N[C@@H](CCC(=O)O)C(=O)N[C@@H](CO)C(=O)N[C@@H](CCC(=O)O)C(=O)N[C@@H](CCC(=O)O)C(=O)NCC(=O)N[C@@H](CO)C(=O)NCC(=O)N[C@@H](CCCNC(N)=O)C(=O)NCC(=O)N[C@@H](C)C(=O)O [GK 435-449] (H-EITFIESEEGSG[Cit]GA-OH; N-terminus and C-terminus assumed) | > 50 |

same assay, conditions: Supplementary Table 3; competition with biotin-HA306-318 0.02 μM; representative values from two replicate experiments; read-out: IC50 (Effect of Citrulline or Arg Substitution)

| SMILES | IC50 [µM] |
| --- | --- |
| CC[C@H](C)[C@H](NC(=O)[C@H](CC(N)=O)NC(=O)[C@H](Cc1ccc(O)cc1)NC(=O)[C@@H](NC(=O)[C@H](CCC(N)=O)NC(=O)[C@@H](N)CCCCN)[C@@H](C)CC)C(=O)N[C@@H](CC(C)C)C(=O)N[C@@H](CO)C(=O)N[C@H](C(=O)N[C@@H](CC(C)C)C(=O)NCC(=O)N[C@@H](CC(C)C)C(=O)N[C@@H](CCCNC(N)=O)C(=O)N1CCC[C@H]1C(=O)N[C@@H](CO)C(=O)O)[C@@H](C)O [GK 346] (H-KQIYNILSTLGL[Cit]PS-OH) | 0.54 |

From PMC8986778, “Citrullination of glucokinase is linked to autoimmune diabetes” (Nature Communications, 2022)
